According to US8093231B2, “Sulfonylethyl phosphorodiamidates” (Telik, Inc., priority 2004, dated 2012):
pIC50: −log10 of the molar value. Like-named read-outs stand apart in the source and are kept apart here.

How the values were obtained:
Format in all cases: cell-based, human
[1] = system: DLD-1 (colorectal adenocarcinoma); assay: Cytotoxicity/growth inhibition assay, DLD-1; settings: read-out: IC50 (DLD-1)
Excerpt: (§1) The human cancer cell lines DLD-1 (colorectal adenocarcinoma), LNCap (prostate carcinoma), and OVCAR-3 (ovarian carcinoma) were obtained from the American Type Culture Collection, Manassas, Va., U.S.A., and HL-60 (promyeloid myelocytic leukemia), MX-1 (breast carcinoma), P388, and P388ADR from the National Cancer Institute, Bethesda, Md., U.S.A. Carboplatin, doxorubicin, and melphalan were obtained from Sigma-Aldrich Chemical Company, St. Louis, Mo., U.S.A. The CellTiter-Glo assay kit was obtained from Promega Corporation, Madison, Wis., U.S.A., and the Cellular DNA Cytometric Analysis Reagent Kit from Roche Diagnostics Corporation, Indianapolis, Ind., U.S.A. Lambda DNA was obtained from New England Biolabs, Beverly, Mass., U.S.A., and SYBR-Gold from Molecular Probes, Inc., Eugene, Oreg., U.S.A. The DNeasy Tissue Kit was obtained from Qiagen Inc., Valencia, Calif., U.S.A., and AmpliTaq Gold DNA polymerase and PCR reagents from Applied Biosystems, Foster City, Calif., U.S.A. All products were used in accordance with manufacturer's directions. All assays were conducted in triplicate wells, with dimethyl sulfoxide (DMSO) solvent control. The extent of cell growth was expressed as a percentage of the signal from the solvent control wells.
(§2) Log-phase cells were trypsinized, collected by centrifugation, and resuspended in a small volume of fresh medium, and the density of viable cells was determined following Trypan Blue staining. Cells were diluted in fresh media (3×10^3 cells/mL for MX-1, 3×10^3 cells/mL for DLD-1, and 6×10^3 cells/mL for LNCap cells), the test compounds (concentrations between 0.1 and 200 μM, dissolved in DMSO, 50 μL) added immediately after dilution to achieve a final DMSO concentration of 0.5%, then the suspensions added at 150 μL/well to 96-well plates, and incubated for several hours to allow attachment in the case of adherent cells. The cells were cultured for approximately three doubling times (3 days for MX-1 and 4 days for DLD-1 and LNCap). The cells were then collected by centrifugation, and 100 μL of the culture supernatant was replaced by the CellTiter-Glo reagent. After incubation for 15 minutes at room temperature, and the plate was read with a luminometer.

[2] = system: LNCap (prostate carcinoma); assay: Cytotoxicity/growth inhibition assay, LNCap; settings: LNCap cells, 4 days culture, CellTiter-Glo, 0.1-200 μM tested; read-out: IC50 (LNCap)
Excerpt: as §1, §2

[3] = system: MX-1 (breast carcinoma); assay: Cytotoxicity/growth inhibition assay, MX-1; settings: read-out: IC50 (MX-1)
Excerpt: as §1, §2

[4] = DLD-1 cells, 4 days culture, CellTiter-Glo, 0.1-200 μM tested
[5] = MX-1 cells, 3 days culture, CellTiter-Glo, 0.1-200 μM tested

Structure (SMILES)	pIC50 [1, 4]	pIC50 [2]	pIC50 [3, 5]	pIC50 ([1]; Homo sapiens, DLD-1, 96 h)	pIC50 ([3]; Homo sapiens, MX1, 72 h)
N[C@@H](CS(=O)(=O)CCOP(=O)(N(CCCl)CCCl)N(CCCl)CCCl)C(=O)OCc1ccccc1 [Compound 82A]	5.11	4.22	4.55		
O=C(NCc1cccnc1)c1ccc(CS(=O)(=O)CCOP(=O)(N(CCCl)CCCl)N(CCCl)CCCl)cc1 [Compound 174A]	4.84	4.25	4.73		
CCCCCCCCS(=O)(=O)CCOP(=O)(N(CCCl)CCCl)N(CCCl)CCCl [Compound 12A]	5.46	4.85	4.86		
CC(C)(C)OC(=O)NCC(=O)Nc1cccc(CS(=O)(=O)CCOP(=O)(N(CCCl)CCCl)N(CCCl)CCCl)c1 [Compound 144A]	5.40	4.75	5.24		
O=C(CS(=O)(=O)CCOP(=O)(N(CCCl)CCCl)N(CCCl)CCCl)NC1CC1 [Compound 60A]	5.13		4.95		
NC(=O)c1ccc(CS(=O)(=O)CCOP(=O)(N(CCCl)CCCl)N(CCCl)CCCl)cc1 [Compound 162A]	5.33	4.26	5.15		
N[C@@H](CCC(=O)Nc1cccc(CS(=O)(=O)CCOP(=O)(N(CCCl)CCCl)N(CCCl)CCCl)c1)C(=O)O [Compound 147A]	4.95	4.19	4.91		
CCNC(=O)c1ccc(CS(=O)(=O)CCOP(=O)(N(CCCl)CCCl)N(CCCl)CCCl)cc1 [Compound 163A]	5.32	4.55	5.32		
CC(C)(C)c1ccc(CS(=O)(=O)CCOP(=O)(N(CCCl)CCCl)N(CCCl)CCCl)cc1 [Compound 137A]	6.10	4.65	5.77		
Cc1cccc(CS(=O)(=O)CCOP(=O)(N(CCCl)CCCl)N(CCCl)CCCl)c1 [Compound 129A]	5.27	4.79	5.15		
O=C(c1ccc(CS(=O)(=O)CCOP(=O)(N(CCCl)CCCl)N(CCCl)CCCl)cc1)N1CCC(O)C1 (stereo not drawn) [Compound 165A]	5.10	3.94	4.66		
CNC(=O)CCS(=O)(=O)CCOP(=O)(N(CCCl)CCCl)N(CCCl)CCCl [Compound 53A]	5.08		4.95		
O=C(CCS(=O)(=O)CCOP(=O)(N(CCCl)CCCl)N(CCCl)CCCl)N1CCC(O)CC1 [Compound 59A]	4.82		4.60		
O=C(CS(=O)(=O)CCOP(=O)(N(CCCl)CCCl)N(CCCl)CCCl)N1CCN(CCO)CC1 [Compound 69A]	4.85		4.46		
CC(C)C(NC(=O)CS(=O)(=O)CCOP(=O)(N(CCCl)CCCl)N(CCCl)CCCl)C(=O)O (stereo not drawn) [Compound 63A]	4.76		5.00		
O=C(O)CNC(=O)CS(=O)(=O)CCOP(=O)(N(CCCl)CCCl)N(CCCl)CCCl [Compound 40A]	4.89		4.49		
CC(C)(C)OC(=O)CN1CCN(C(=O)CS(=O)(=O)CCOP(=O)(N(CCCl)CCCl)N(CCCl)CCCl)CC1 [Compound 47A]	5.03		4.80		
CS(=O)(=O)CCC(NC(=O)CS(=O)(=O)CCOP(=O)(N(CCCl)CCCl)N(CCCl)CCCl)C(=O)O (stereo not drawn) [Compound 66A]	4.73		4.54		
O=C(CCS(=O)(=O)CCOP(=O)(N(CCCl)CCCl)N(CCCl)CCCl)N1CCOCC1 [Compound 58A]	4.89		4.77		
CC(C)(C)OC(=O)CC(NC(=O)CS(=O)(=O)CCOP(=O)(N(CCCl)CCCl)N(CCCl)CCCl)C(N)=O (stereo not drawn) [Compound 41A]	4.97		4.53		

Structure (SMILES)	pIC50 [1, 4]	pIC50 [2]	pIC50 [3, 5]	pIC50 ([1]; Homo sapiens, DLD-1, 96 h)	pIC50 ([3]; Homo sapiens, MX1, 72 h)
CC(NC(=O)CS(=O)(=O)CCOP(=O)(N(CCCl)CCCl)N(CCCl)CCCl)C(=O)O (stereo not drawn) [Compound 64A]	4.66		4.43		
COCCNC(=O)CS(=O)(=O)CCOP(=O)(N(CCCl)CCCl)N(CCCl)CCCl [Compound 48A]	4.81		5.36		
CCNC(=O)CS(=O)(=O)CCOP(=O)(N(CCCl)CCCl)N(CCCl)CCCl [Compound 50A]	4.92		4.77		
O=C(Nc1cccc(CS(=O)(=O)CCOP(=O)(N(CCCl)CCCl)N(CCCl)CCCl)c1)C1CCCNC1 (stereo not drawn) [Compound 148A]	≤ 3.70		≤ 3.70		
O=C(CS(=O)(=O)CCOP(=O)(N(CCCl)CCCl)N(CCCl)CCCl)NCCO [Compound 49A]	4.94		4.54		
O=C(CCS(=O)(=O)CCOP(=O)(N(CCCl)CCCl)N(CCCl)CCCl)NCCO [Compound 56A]	5.09		4.71		
CC(NC(=O)CS(=O)(=O)CCOP(=O)(N(CCCl)CCCl)N(CCCl)CCCl)C(=O)OC(C)(C)C (stereo not drawn) [Compound 44A]	4.95		4.46		
COC(=O)[C@H](CS(=O)(=O)CCOP(=O)(N(CCCl)CCCl)N(CCCl)CCCl)NS(C)(=O)=O [Compound 79A, N-(Methanesulfonyl)-3-[[2-[[bis[bis(2-chloroethyl)amino]phosphinyl]oxy]ethyl]sulfonyl]-L-alanine methyl ester]				4.58	4.06
NC(=O)CC(NC(=O)CS(=O)(=O)CCOP(=O)(N(CCCl)CCCl)N(CCCl)CCCl)C(=O)O (stereo not drawn) [Compound 65A]	4.67		4.50		
CCNC(=O)CCS(=O)(=O)CCOP(=O)(N(CCCl)CCCl)N(CCCl)CCCl [Compound 54A]	5.13		5.03		
O=C(CS(=O)(=O)CCOP(=O)(N(CCCl)CCCl)N(CCCl)CCCl)N1CCOCC1 [Compound 51A]	5.17		5.16		
NC(=O)C(CC(=O)O)NC(=O)CS(=O)(=O)CCOP(=O)(N(CCCl)CCCl)N(CCCl)CCCl (stereo not drawn) [Compound 61A]	4.70		4.51		
O=C(CCS(=O)(=O)CCOP(=O)(N(CCCl)CCCl)N(CCCl)CCCl)NC1CC1 [Compound 55A]	5.00		4.83		
CC(C)(C)OC(=O)[C@@H]1CCCN1C(=O)CS(=O)(=O)CCOP(=O)(N(CCCl)CCCl)N(CCCl)CCCl [Compound 42A]	5.33		5.12		
O=C(CS(=O)(=O)CCOP(=O)(N(CCCl)CCCl)N(CCCl)CCCl)N1CCNCC1 [Compound 68A]	4.74		4.44		
CN(C)CCNC(=O)c1ccc(CS(=O)(=O)CCOP(=O)(N(CCCl)CCCl)N(CCCl)CCCl)cc1 [Compound 173A]	4.42		3.98		
O=C(O)CCNC(=O)CS(=O)(=O)CCOP(=O)(N(CCCl)CCCl)N(CCCl)CCCl [Compound 39A]	4.88		4.51		
O=C(CS(=O)(=O)CCOP(=O)(N(CCCl)CCCl)N(CCCl)CCCl)N1CCC(O)CC1 [Compound 52A]	4.99		4.81		
O=C(O)[C@@H]1CCCN1C(=O)CS(=O)(=O)CCOP(=O)(N(CCCl)CCCl)N(CCCl)CCCl [Compound 62A]	4.78		4.82		
COCCNC(=O)CCS(=O)(=O)CCOP(=O)(N(CCCl)CCCl)N(CCCl)CCCl [Compound 57A]	5.00		4.74		
